According to patent US20060188913A1, “Methods and products for enhancing immune responses using imidazoquinoline compounds” (University of Iowa Research Foundation, priority 2001, published 2006):

Legend:
human PBMC = assay: IL-6 secretion by human PBMC (ELISA), with or without chloroquine; format: cell-based; details: 10 μg/ml chloroquine, 24 h, IL-6, FIG. 9
Method: Vasilakos J P et al. (2000) Cell Immunol 204:64-74. Human PBMC (n=3) were cultured for 24 h with varying concentrations of R-848 ([…]), varying concentrations of CpG ODN 2006 (0.8-6.0 μg/ml), SEB (50 ng/ml), or media alone. […] IL-6 in the supernatants was measured by ELISA. […] TLR9 is believed to have intracellular expression only.

hTLR7 = molecular target: T1, hTLR7 (Homo sapiens, UniProt Q9NYK1); assay: IL-8 production in 293 fibroblasts transiently expressing hTLR7; format: cell-based; details: CpG-ODN 2 μM, LPS 100 ng/ml
T1 construct: plasmids (pcDNA3.1 constructs) coding for full length hTLR2, hTLR7, hTLR8 and hTLR9; expressed in transfected cells; host or cells: 293T cells
T1 sequence (Q9NYK1 27-1049): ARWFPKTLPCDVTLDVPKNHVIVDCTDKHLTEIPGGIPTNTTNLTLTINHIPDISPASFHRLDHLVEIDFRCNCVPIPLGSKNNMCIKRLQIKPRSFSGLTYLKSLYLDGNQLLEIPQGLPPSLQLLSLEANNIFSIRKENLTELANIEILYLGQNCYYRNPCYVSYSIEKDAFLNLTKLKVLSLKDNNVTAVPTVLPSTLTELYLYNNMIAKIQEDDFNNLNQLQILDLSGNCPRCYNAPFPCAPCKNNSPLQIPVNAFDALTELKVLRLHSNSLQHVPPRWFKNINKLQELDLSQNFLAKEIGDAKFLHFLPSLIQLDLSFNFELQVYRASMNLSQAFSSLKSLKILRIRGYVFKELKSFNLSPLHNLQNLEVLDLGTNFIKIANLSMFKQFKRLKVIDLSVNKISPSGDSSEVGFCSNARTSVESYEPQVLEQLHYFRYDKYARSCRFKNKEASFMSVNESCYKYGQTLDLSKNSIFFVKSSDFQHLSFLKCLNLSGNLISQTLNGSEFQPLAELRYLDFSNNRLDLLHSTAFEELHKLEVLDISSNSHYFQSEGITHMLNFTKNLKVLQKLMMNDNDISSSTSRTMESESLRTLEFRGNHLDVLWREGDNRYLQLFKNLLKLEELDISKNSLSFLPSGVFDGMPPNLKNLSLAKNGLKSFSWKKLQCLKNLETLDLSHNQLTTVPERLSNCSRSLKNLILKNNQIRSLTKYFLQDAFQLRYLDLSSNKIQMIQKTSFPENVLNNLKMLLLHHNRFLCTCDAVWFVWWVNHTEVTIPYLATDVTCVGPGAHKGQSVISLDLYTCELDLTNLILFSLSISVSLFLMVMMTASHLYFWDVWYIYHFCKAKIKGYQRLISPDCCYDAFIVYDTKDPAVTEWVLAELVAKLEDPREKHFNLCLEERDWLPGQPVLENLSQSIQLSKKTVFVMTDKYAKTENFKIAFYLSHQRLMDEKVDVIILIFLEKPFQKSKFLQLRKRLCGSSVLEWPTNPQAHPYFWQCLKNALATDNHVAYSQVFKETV
Method: The cloned human TLR7 and human TLR8 cDNA were cloned into the expression vector pCDNA3. 1 (−) from Invitrogen using the NotI site. Utilizing a “gain of function” assay, hTLR7 and hTLR8 expression vectors were transiently expressed in human 293 fibroblasts (ATCC, CRL-1573) using the calcium phosphate method. Activation was monitored by IL-8 production after stimulus with CpG-ODN (2006 or 1668, 2 μM) or LPS (100 ng/ml).

CpG ODN 2006 was tested, and the “inhibition of the stimulant's activity by chloroquine (in words)” value (human PBMC) was “completely abolish” and the “activation monitored by IL-8 production” value (hTLR7) was “None of the stimuli used activated”.
